Assay results reported in ChEMBL document CHEMBL3639125, “1,4-oxazepines as BACE1 and/or BACE2 inhibitors” (2014).

What was measured:
Beta-secretase 2 = biological target: T1, Beta-secretase 2 (Homo sapiens, UniProt Q9Y5Z0); experiment: In summary, a peptide is designed that is cleaved by the protease. The peptide is labelled with dabcyl at the N terminus and Lucifer Yellow at the C-terminus, such that for an intact peptide the Lucifer Yellow fluorescence is quenched by the dabcyl. When the peptide is cut by BACE2, the quenching is removed and a fluorescent signal is generated.
T1 sequence (Q9Y5Z0 whole entry): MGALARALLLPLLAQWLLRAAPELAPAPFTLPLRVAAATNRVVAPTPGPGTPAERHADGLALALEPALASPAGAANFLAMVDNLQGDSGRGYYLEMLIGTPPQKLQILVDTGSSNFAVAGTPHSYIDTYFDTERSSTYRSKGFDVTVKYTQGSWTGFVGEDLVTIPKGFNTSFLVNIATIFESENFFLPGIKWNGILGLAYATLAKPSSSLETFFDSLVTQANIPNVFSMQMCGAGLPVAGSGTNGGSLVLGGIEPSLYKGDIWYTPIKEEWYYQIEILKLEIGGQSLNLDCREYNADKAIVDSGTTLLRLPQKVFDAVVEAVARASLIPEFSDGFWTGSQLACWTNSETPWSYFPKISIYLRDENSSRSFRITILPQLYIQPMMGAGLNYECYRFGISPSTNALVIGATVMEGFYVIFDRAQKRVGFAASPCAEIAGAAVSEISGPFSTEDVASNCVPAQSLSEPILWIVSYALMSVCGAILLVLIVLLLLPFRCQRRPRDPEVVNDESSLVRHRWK

Beta-secretase 1 = Beta-secretase 1 (Homo sapiens, UniProt P56817); experiment: Immunofluorescence Resonance Energy Transfer (FRET) Assay: The FRET assay was performed essentially as described in Gruninger-Leitch et al., Journal of Biological Chemistry (2002) 277(7) 4687-93 (Substrate and inhibitor profile of BACE (beta-secretase) and comparison with other mammalian aspartic proteases). In summary, a peptide is designed that is cleaved by the protease. The peptide is labelled with dabcyl at the N terminus and Lucifer Yellow at the C-terminus, such that for an intact peptide the Lucifer Yellow fluorescence is quenched by the dabcyl. When the peptide is cut by BACE2, the quenching is removed and a fluorescent signal is generated. The assay was performed as described in Grueninger et al. 2002 at pH 4.5 using a substrate concentration of 5 μM. A FRET peptide based on the TMEM27 sequence was devised. dabcyl-QTLEFLKIPS-LucY (SEQ ID NO: 1). […] Conversely, BACE1 had insignificant activity against this peptide.
Chain of Beta-secretase 1 (P56817 whole entry): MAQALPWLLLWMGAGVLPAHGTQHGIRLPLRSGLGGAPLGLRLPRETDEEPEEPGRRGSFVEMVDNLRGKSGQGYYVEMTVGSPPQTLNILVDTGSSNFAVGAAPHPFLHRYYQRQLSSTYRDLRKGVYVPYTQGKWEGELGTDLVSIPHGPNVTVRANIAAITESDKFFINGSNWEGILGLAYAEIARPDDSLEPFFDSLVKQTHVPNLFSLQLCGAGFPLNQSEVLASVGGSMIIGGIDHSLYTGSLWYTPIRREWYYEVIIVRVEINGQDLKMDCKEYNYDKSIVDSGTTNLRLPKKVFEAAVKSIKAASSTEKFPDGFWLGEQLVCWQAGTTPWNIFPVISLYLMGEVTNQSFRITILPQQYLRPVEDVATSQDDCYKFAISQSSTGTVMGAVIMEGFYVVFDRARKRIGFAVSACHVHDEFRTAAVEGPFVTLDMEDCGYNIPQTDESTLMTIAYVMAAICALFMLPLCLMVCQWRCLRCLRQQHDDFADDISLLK

- IC50 (Beta-secretase 2): 3.89 µM
Compound: CC1(C)OCC(N)=N[C@](C)(c2cc(Nc3cncc(C(F)(F)F)c3)ccc2F)C1(F)F
- IC50 (Beta-secretase 1): 1900 nM
